US20210322462A1, “WOUND PREVENTION AND/OR TREATMENT AND RELATED COMPOUNDS, MATRICES, COMPOSITIONS, METHODS AND SYSTEMS” (CALIFORNIA INSTITUTE OF TECHNOLOGY, priority 2020, published 2021)

Assays:
[1] = tested on: Pseudomonas aeruginosa ΔhflC; test: Chlorate sensitivity assay and chlorate quantification, ΔhflC versus wild type; type: cell-based; conditions: 1 mM chlorate
Procedure: (§1) Chlorate sensitivity assay was then performed. In particular, to test mutants for chlorate sensitivity, overnight cultures of each strain were grown aerobically in LB with 40 mM KNO3. Cultures were pelleted, washed twice with LB to remove residual KNO3, and resuspended in LB without (control) or with 1 mM NaClO3 to final OD500=1. Cultures were moved to the anaerobic glove box to adapt to anoxia.
[…] At 72 hours, part of the culture was also pelleted, and supernatant collected for quantifying chlorate concentrations via ion chromatography.
(§2) Chlorate quantification was then performed via ion chromatography. In particular, culture samples were pelleted, and the supernatant was diluted 1:10 in dH2O in a 0.5 mL vial (Thermo Fisher Scientific catalog numbers 038010 and 038011). Chlorate concentrations were determined using a Dionex ICS 2000 ion chromatography as described previously (Spero and Newman 2018).) at the Environmental Analysis Center at Caltech.

[2] = tested on: Pseudomonas aeruginosa ΔnarGHJI; test: Chlorate sensitivity assay and chlorate quantification, ΔnarGHJI versus wild type; type: cell-based; conditions: 1 mM chlorate, 72 hours
Procedure: as §1
Cultures were incubated at 37° C. for 72 hours, after which they were removed from the anaerobic glove box to determine viable cell counts for calculating percent survival as described previously) (Spero and Newman 2018).). At 72 hours, part of the culture was also pelleted, and supernatant collected for quantifying chlorate concentrations via ion chromatography.
as §2

SMILES: [O-][Cl+2]([O-])O [chlorate, NaClO3]
- chlorate resistance (% survival) relative to WT ([1]; over the course of 48 hours (FIG. 3A)): more resistant to chlorate than WT
- Nar activity, chlorate reduction (% chlorate remaining) relative to WT ([1]; over the course of 48 hours (FIG. 3B)): lower rates of chlorate reduction
- chlorate resistance (% survival) relative to WT ([2]; anaerobic, 37° C. (FIG. 2A)): more resistant to chlorate than WT
- Nar activity, chlorate reduction (% chlorate remaining) relative to WT ([2]; ion chromatography (FIG. 2B)): lower rates of chlorate reduction
